Reference: PMC3888718, “F-18 Labeled Vasoactive Intestinal Peptide Analogue in the PET Imaging of Colon Carcinoma in Nude Mice” (BioMed Research International, 2013)
Read-outs that look alike come from different tables or passages of the source. Where a SMILES comes first, the peptide text is derived from it. The star is where a group is joined. Benzoyl(4-F) = O=C(c1ccc(F)cc1)*

What was measured:
[1] = tissue distribution test in normal BALB/C mice; type: in vivo; settings: 100 μCi tail vein, 5-120 min, γ counter, n = 5 per group
Protocol: All animal experiments followed the laboratory animal specifications of Zhongshan Hospital, Fudan University. In order to obtain preliminary in vivo pharmacokinetics data of this radiolabeled polypeptide, 100 μL 3.7 MBq (100 μCi) [F-18]FB-[R^8,15,21, L^17]-VIP was injected into each normal BALB/C mouse through tail vein. 20 mice were assigned to 4 groups evenly. At 5, 30, 60, and 120 min following injection, they were sacrificed under anesthesia. Mice in each group were immediately subject to autopsy, where the organs and tissues of interest, including brain, liver, kidneys, heart, lungs, spleen, stomach, small intestine, muscles, bones, and blood, were collected. All the tissue samples were weighed and their counting were measured by γ counter, so that the percent injected dose per each gram of tissue (% ID/g) was derived.

[2] = micro-PET imaging in C26 tumor bearing mice; type: in vivo; settings: nude mice, tumor and muscle, total radioactivity, micro-PET; for tissue to tissue ratio at 1 h: 60 min after injection
Protocol: (§1) C26 tumor bearing mice were obtained by right subaxillary implantation and were used in PET imaging test when the tumor had grown to the size of about 1 cm. PET imaging test in small animals was performed on a micro-PET R4 scanner (Concorde Microsystems, Siemens, Germany). After sodium pentobarbital anesthesia, C26 tumor bearing mice were injected with 1.5 MBq (40 μCi) [F-18]FB-[R^8,15,21, L^17]-VIP and placed in the central zone of the micro-PET device separately at 5 min, 60 min, and 120 min following injection. They underwent static scanning for 10 min at different points. The original data obtained were transformed into 2D image by Fourier transform and 2D FBP reconstruction.
(§2) Blocking experiment was conducted to explore whether [F-18]FB-[R^8,15,21, L^17]-VIP was receptor-specific. 100 μg of nonlabeled VIP polypeptide mixed with 40 μCi [F-18]FB-[R^8,15,21, L^17]-VIP was injected into each C26 tumor bearing mouse. The imaging experiment with blocking was performed 60 min following injection, using scanning for 10 min and the same procedures and data treatment process as above.

C26 colon carcinoma = experiment: micro-PET imaging in C26 tumor bearing mice; type: in vivo; settings: micro-PET images, C26 tumor bearing mice
Protocol: as §1, §2

[3] = cited from earlier work
Text: (§3) Since Virgolin initially reported use of ^123I labeled VIP in the imaging study of tumor VIP receptors, several potential ^123I, ^99 mTc, F-18, and ^64Cu labeled VIP analogues have been developed. […] Therefore, our early efforts mainly focused on the structural modification for improving in vivo stability of VIP polypeptide and a series of studie ...

VIP receptor = settings: cited from earlier work
Text: as §3

[4] = system: colon carcinoma cells LS174T; settings: mouse, in vivo; cited from earlier work
Text: Like other neuropeptides, VIP is quickly metabolized in liver and excreted from kidneys. Given this, when VIP is to be used as an imaging agent, chemical modification of its structure is mandatory to extend the biological half-life in order to meet the imaging requirement. […] Pallela et al. labeled VIP analogue (TP3654) by ^99mTc and conducted animal distribution and imaging tests in nude mice transpla ...

## CC[C@H](C)[C@H](NC(=O)[C@H](CO)NC(=O)[C@H](CC(N)=O)NC(=O)[C@H](CC(C)C)NC(=O)[C@H](Cc1ccc(O)cc1)NC(=O)[C@H](CCCNC(=N)N)NC(=O)[C@H](CCCCNC(=O)c1ccc(F)cc1)NC(=O)[C@@H](NC(=O)[C@H](C)NC(=O)[C@H](CC(C)C)NC(=O)[C@H](CCC(N)=O)NC(=O)[C@H](CCCNC(=N)N)NC(=O)[C@H](CCCNC(=N)N)NC(=O)[C@H](CC(C)C)NC(=O)[C@H](CCCNC(=N)N)NC(=O)[C@@H](NC(=O)[C@H](Cc1ccc(O)cc1)NC(=O)[C@H](CC(N)=O)NC(=O)[C@H](CCCNC(=N)N)NC(=O)[C@@H](NC(=O)[C@H](Cc1ccccc1)NC(=O)[C@@H](NC(=O)[C@H](C)NC(=O)[C@H](CC(=O)O)NC(=O)[C@H](CO)NC(=O)[C@@H](N)Cc1c[nH]cn1)C(C)C)[C@@H](C)O)[C@@H](C)O)C(C)C)C(=O)N[C@@H](CC(C)C)C(=O)N[C@@H](CC(N)=O)C(N)=O [[F-18]FB-[R^8,15,21, L^17]-VIP] (H-HSDAVFTRNYTRLRRQLAVK(Benzoyl(4-F))RYLNSILN-NH2; N-terminus assumed)
[1]
  bone absorption (defluorination stability): low bone absorption
[2]; mouse, iv, 40 uCi, C26 tumor bearing mice, 40 μCi i.v., 5 min after injection, 10 min static scan, read-out: tumor-to-muscle ratio (T/M)
  tissue to tissue ratio at 5 min: 1.84
[2]; mouse, iv, 40 uCi, C26 tumor bearing mice, 40 μCi, unblocked, read-out: tumor-to-muscle ratio (T/M)
  tissue to tissue ratio at 1 h: 3.03
[2]; mouse, iv, 40 uCi, C26 tumor bearing mice, 40 μCi, 120 min after injection, read-out: tumor-to-muscle ratio (T/M)
  tissue to tissue ratio at 2 h: 3.74
[2]; C26 tumor bearing mouse, 40 μCi mixed with 100 μg nonlabeled VIP, read-out: tumor-to-muscle ratio (T/M), blocking experiment
  tissue to tissue ratio at 1 h: 1.01
C26 colon carcinoma
  passage through the blood-brain barrier: could not pass through the blood-brain barrier
C26 colon carcinoma; up until 120 min
  bone absorption (in vivo defluorination stability): no marked bone absorption

## H-HSDAVFTRNYTRLRRQLAVKRYLNSILN-NH2 [[R^8,15,21, L^17]-VIP, VIP analogue, 28-residue peptide amide, precursor for F-18 labeling]
[3]
  in vivo stability in comparison to native VIP: higher
VIP receptor
  receptor affinity in comparison to native VIP: higher

## ^125I-VIP: ^125I labeled vasoactive intestinal peptide
[4]
  tumor/blood ratio (T/B): 0.88 ± 0.16
  tumor/muscle ratio (T/M): 0.38 ± 0.56
